Earlier results in paper PMC8891573, “Dysregulation of the Nitric Oxide/Dimethylarginine Pathway in Hypoxic Pulmonary Vasoconstriction—Molecular Mechanisms and Clinical Significance” (Frontiers in Medicine, 2022).
Where two headings read alike, the source gives them in different places.

Assays:
ETA and ETB receptors = system: ETA and ETB receptors; parameters: method as in PMID 8847282, PMID 8873714, PMID 20415698; conditions: animal models and clinical studies
[1] = parameters: method as in PMID 9799202
mouse lungs = system: mouse lungs; parameters: method as in PMID 19648472; conditions: oral L-arginine treatment
eNOS = conditions: for effect on NOS activity: competition with L-arginine for the NOS catalytic site
mice = system: mice; parameters: method as in PMID 17068215; conditions: acute HX exposure, HC or SC mice, i.p. injection of ADMA
CAT-2 = system: CAT-2; parameters: method as in PMID 28684763, PMID 9701046
[2] = inhaled NO, small trials
isolated aortic rings = system: isolated aortic rings; parameters: method as in PMID 2870025

COc1ccccc1Oc1c(NS(=O)(=O)c2ccc(C(C)(C)C)cc2)nc(-c2ncccn2)nc1OCCO [bosentan]
effect on HPV (ETA and ETB receptors): variable effects

N=C(N)NCCC[C@H](N)C(=O)O [L-arginine]
reversal of impaired NO generation and endothelial dysfunction due to elevated ADMA [1]: reversible | PRMT2, DDAH2, ADMA and nitrotyrosine changes in ovalbumin-treated mice (mouse lungs): PRMT2 ↑ and DDAH2 ↓ in ovalbumin-treated mice, along with ↑ ADMA and ↑ nitrotyrosine; Reversal with oral L-arginine treatment

CN(C)C(N)=NCCC[C@H](N)C(=O)O [ADMA, asymmetric dimethylarginine]
inhibition of eNOS (eNOS): competitive inhibitor | effect on NOS activity (eNOS): competitively inhibits NOS activity | HX survival time (mice): ADMA increased HX survival time in HC and in SC mice; the effect was mediated by regulation of eNOS activity | inhibition of CAT-2, cellular uptake transporter for L-arginine (CAT-2): may inhibit

CN=C(NC)NCCC[C@H](N)C(=O)O [SDMA, symmetric dimethylarginine]
effect on NOS activity (eNOS): unable to directly interfere with NOS activity | inhibition of CAT-2, cellular uptake transporter for L-arginine (CAT-2): may inhibit

Nitric oxide [NO]
effects on COVID-19-associated hypoxaemia and outcome [2]: inconclusive

CC(=O)OCC[N+](C)(C)C [acetylcholine]
vascular response of aortic rings (isolated aortic rings; Wistar rats): endothelium-dependent vasodilation | vascular response of aortic rings (isolated aortic rings; spontaneously hypertensive rats (SHR)): vasoconstriction
